Target: T1, IL-17A/A (Homo sapiens, UniProt Q16552)
T1 construct: purchased Genscript Z03228
T1 sequence (Q16552 24-155): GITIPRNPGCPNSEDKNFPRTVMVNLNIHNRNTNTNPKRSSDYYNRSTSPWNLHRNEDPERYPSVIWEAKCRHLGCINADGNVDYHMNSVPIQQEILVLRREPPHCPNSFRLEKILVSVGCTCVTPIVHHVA
Test: HEK-Blue IL-17A/A inhibition assay (SEAP reporter)
Assay type: cell-based
Details: HEK-Blue cells (HEK 293 expressing IL-17RA, IL-17RC, Act1); IL-17A/A stimulation; 20 hours; SEAP read at A630; 4-parameter fit
Method in brief: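 IC50 from a 4-parameter fit of SEAP signal (Quanti-Blue, A630) after 20 h co-incubation of compound and IL-17A/A. Reporter line: HEK 293 expressing IL-17RA, IL-17RC and Act1 with NFκB-SEAP; compound top final 10, 1 or 0.3 uM, DMSO 0.1% final.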

Compound	IC50 [µM]
CC(C)c1nocc1C(=O)N[C@H](C(=O)Nc1cc(C(F)(F)F)c(C(C)C(=O)NCC(F)(F)F)cc1F)C(C1CC1)C1CC1 (stereo partly shown) [Compound 229]	> 1
CC(C(=O)NCC(F)(F)F)c1cc(F)c(NC(=O)[C@@H](NC(=O)c2ccnn2C(C)C)C(C2CC2)C2CC2)cc1N1CCOCC1 (stereo partly shown) [Compound 232]	> 1
CC(C(=O)N(C)CC(F)(F)F)c1cc(F)c(NC(=O)[C@@H](NC(=O)c2ccnn2C(C)C)C(C2CC2)C2CC2)cc1N(C)C (stereo partly shown) [Compound 233]	> 1
CC(C(=O)NCC(F)(F)F)c1cc(F)c(NC(=O)[C@@H](NC(=O)c2ccnn2C(C)C)C(C2CC2)C2CC2)cc1N(C)C (stereo partly shown) [Compound 234]	> 1
CC(C(=O)N1CCCN1)c1ccc(NC(=O)[C@@H](NC(=O)c2ccnn2C(C)C)C(C2CC2)C2CC2)c(F)c1 (stereo partly shown) [Compound 235]	> 1
Cc1c(F)c(NC(=O)[C@@H](NC(=O)c2conc2C2CC2)C(C2CC2)C2CC2)cc(C(F)(F)F)c1C(C)C(=O)NCC(F)(F)F (stereo partly shown) [Compound 237]	> 1
CC(C)c1nonc1C(=O)N[C@H](C(=O)Nc1cc(C(F)(F)F)c(C(C)C(=O)NCC(F)(F)F)cc1F)C(C1CC1)C1CC1 (stereo partly shown) [Compound 238]	0.1 to 1
CCn1nccc1C(=O)N[C@H](C(=O)Nc1cc(C(F)(F)F)c(C(C)C(=O)N2CC(F)(F)CC2C(F)(F)F)cc1F)C(C1CC1)C1CC1 (stereo partly shown) [Compound 239]	0.1 to 1
CCn1nccc1C(=O)N[C@H](C(=O)Nc1cc(C(F)(F)F)c(C(C)C(=O)N2CC(F)(F)C(F)(F)C2)cc1F)C(C1CC1)C1CC1 (stereo partly shown) [Compound 242]	0.1 to 1
CCN(C)C(=O)C(C)c1cc(F)c(NC(=O)[C@@H](NC(=O)c2ccnn2CC)C(C2CC2)C2CC2)cc1C (stereo partly shown) [Compound 243]	0.1 to 1
CCNC(=O)C(C)c1cc(F)c(NC(=O)[C@@H](NC(=O)c2ccnn2CC)C(C2CC2)C2CC2)cc1C (stereo partly shown) [Compound 244]	> 1
CCn1nccc1C(=O)N[C@H](C(=O)Nc1cc(OC(F)(F)F)c(C(C)C(=O)N(C)CC(F)(F)F)cc1F)C(C1CC1)C1CC1 (stereo partly shown) [Compound 245]	0.1 to 1
CC(C(=O)N(C)CC(F)(F)F)c1cc(F)c(NC(=O)[C@@H](NC(=O)c2ccnn2C(C)C)C(C2CC2)C2CC2)cc1OC(F)(F)F (stereo partly shown) [Compound 246]	> 1
CC(C(=O)NCC(F)(F)F)c1cc(F)c(NC(=O)[C@@H](NC(=O)c2ccnn2C)C(C2CC2)C2CC2)cc1OC(F)(F)F (stereo partly shown) [Compound 247]	> 1
CCn1nccc1C(=O)N[C@H](C(=O)Nc1cc(OC(F)(F)F)c(C(C)C(=O)NCC(F)(F)F)cc1F)C(C1CC1)C1CC1 (stereo partly shown) [Compound 248]	> 1
COC(=O)Nc1cc(NC(=O)[C@@H](NC(=O)c2ccnn2C(C)C)C(C2CC2)C2CC2)c(F)cc1C(C)C(=O)NCC(F)(F)F (stereo partly shown) [Compound 249]	0.1 to 1
CC(C(=O)NCC(F)(F)F)c1cc(F)c(NC(=O)[C@@H](NC(=O)c2ccnn2C(C)C)C(C2CC2)C2CC2)cc1Nc1ccccn1 (stereo partly shown) [Compound 254]	> 1
CCOC(=O)Nc1cc(NC(=O)[C@@H](NC(=O)c2ccnn2C(C)C)C(C2CC2)C2CC2)c(F)cc1C(C)C(=O)NCC(F)(F)F (stereo partly shown) [Compound 255]	> 1
CC(C(=O)NCC(F)(F)F)c1cc(F)c(NC(=O)[C@@H](NC(=O)c2ccnn2C(C)C)C(C2CC2)C2CC2)cc1NC(=O)OCCN (stereo partly shown) [Compound 256]	0.1 to 1
CC(C(=O)NCC(F)(F)F)c1cc(F)c(NC(=O)[C@@H](NC(=O)c2ccnn2C(C)C)C(C2CC2)C2CC2)cc1CS(C)(=N)=O (stereo partly shown) [Compound 260]	0.1 to 1
N-((S)-1,1-dicyclopropyl-3-((2-fluoro-4-((S)-1-oxo-1-(3-(trifluoromethyl)azetidin-1-yl)propan-2-yl)phenyl)amino)-3-oxopropan-2-yl)-1-ethyl-1H-pyrazole-5-carboxamide [Compound 14]	0.1 to 1

More lines, now with the values ahead:

IC50 [µM]	Compound
< 0.1	Cc1cc(NC(=O)[C@@H](NC(=O)c2ccnn2C)C(C2CC2)C2CC2)c(F)cc1C(C)C(=O)N(C)CC(F)(F)F (stereo partly shown) [Compound 223]
0.1 to 1	CCc1nonc1C(=O)N[C@H](C(=O)Nc1cc(C)c(C(C)C(=O)NCC(F)(F)F)cc1F)C1CCC(F)(F)CC1 (stereo partly shown) [Compound 224]
0.1 to 1	CCc1nonc1C(=O)N[C@H](C(=O)Nc1cc(C)c(C(C)C(=O)N(C)CC(F)(F)F)cc1F)C1CCC(F)(F)CC1 (stereo partly shown) [Compound 225]
0.1 to 1	CNCc1cc(NC(=O)[C@@H](NC(=O)c2ccnn2C(C)C)C(C2CC2)C2CC2)c(F)cc1C(C)C(=O)NCC(F)(F)F (stereo partly shown) [Compound 226]
0.1 to 1	CC(C(=O)N(C)CC(F)(F)F)c1cc(F)c(NC(=O)[C@@H](NC(=O)c2ccnn2C(C)C)C(C2CC2)C2CC2)cc1CNCCO (stereo partly shown) [Compound 227]
0.1 to 1	CC(C(=O)N1CCC(C(N)=O)C1C(F)(F)F)c1cc(F)c(NC(=O)[C@@H](NC(=O)c2ccnn2C(C)C)C(C2CC2)C2CC2)cc1C(F)(F)F (stereo partly shown) [Compound 228]
< 0.1	CCn1nccc1C(=O)N[C@H](C(=O)Nc1cc(C)c(C(C)C(=O)NCC(F)(F)F)cc1F)C(C1CC1)C1CC1 (stereo partly shown) [Compound 236]
< 0.1	CC(C(=O)N1CCC(C(N)=O)C1C(F)(F)F)c1cc(F)c(NC(=O)[C@@H](NC(=O)c2ccnn2C(C)C)C(C2CC2)C2CC2)cc1C(F)(F)F (stereo partly shown) [Compound 250]
< 0.1	Cc1cc(NC(=O)[C@@H](NC(=O)c2nonc2C2CC2)C(C2CC2)C2CC2)c(F)cc1C(C)C(=O)NCC(F)(F)F (stereo partly shown) [Compound 251]
< 0.1	CCn1nccc1C(=O)N[C@H](C(=O)Nc1cc(OC(F)(F)F)c(C(C)C(=O)N(C)CC(F)(F)F)cc1F)C(C1CC1)C1CC1 (stereo partly shown) [Compound 253]
< 0.1	CC(C(=O)N(C)CC(F)(F)F)c1cc(F)c(NC(=O)[C@@H](NC(=O)c2ccnn2C(C)C)C(C2CC2)C2CC2)cc1OC(F)(F)F (stereo partly shown) [Compound 257]
< 0.1	CC(C(=O)NCC(F)(F)F)c1cc(F)c(NC(=O)[C@@H](NC(=O)c2ccnn2C)C(C2CC2)C2CC2)cc1OC(F)(F)F (stereo partly shown) [Compound 258]
< 0.1	CCn1nccc1C(=O)N[C@H](C(=O)Nc1cc(OC(F)(F)F)c(C(C)C(=O)NCC(F)(F)F)cc1F)C(C1CC1)C1CC1 (stereo partly shown) [Compound 259]
